How the values were obtained:
Assay type in all cases: in vivo
Cyperus microiria = experiment: Test for Herbicidal Effect in Flooding Treatment (#1), CYMIC; settings: flooding treatment at seeding, dose 2 kg/ha, visual observation on day 21
Procedure, shortened: (§1)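 Flooded soil in cups was seeded 24 h after flooding, then treated with compound in acetone diluted with Tween 80-containing water, dropped onto the water surface at 2 kg/ha. After growth in a glasshouse, growth inhibition was scored visually on day 21 on a 0 (<10%) to 5 (≥90% or complete withering) scale.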

Monochoria vaginalis = experiment: Test for Herbicidal Effect in Flooding Treatment (#1), MONVA; settings: flooding treatment at seeding, dose 2 kg/ha, visual observation on day 21
Procedure, shortened: as §1

[1] = system: Echinochloa crus-galli (L.) P. Beauv. var. formosensis Ohwi; experiment: Test for Herbicidal Effect in Flooding Treatment (#2), ECHDG at 2-2.5 leaf stage; settings: flooding treatment at 2-2.5 leaf stage, dose 0.2 kg/ha, visual observation on day 21
Procedure, shortened: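 Scoring is a visual 0–5 scale of growth inhibition (0 below 10%, 5 at 90% or more or full withering), taken 21 days after treatment in a glasshouse. Dose was 0.2 kg/ha, applied as acetone/Tween 80 aqueous solution onto flooded soil once seedlings reached the 2–2.5 leaf stage.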

[2] = system: Echinochloa crus-galli (L.) P. Beauv. var. formosensis Ohwi; experiment: Test for Herbicidal Effect in Flooding Treatment (#1), ECHDG; settings: flooding treatment at seeding, dose 2 kg/ha, visual observation on day 21
Procedure, shortened: as §1

Scirpus juncoides = experiment: Test for Herbicidal Effect in Flooding Treatment (#1), SCIJU; settings: flooding treatment at seeding, dose 2 kg/ha, visual observation on day 21
Procedure, shortened: as §1

SMILES	CYMIC #1 herbicidal effect (growth inhibition grade) (Cyperus microiria)	MONVA #1 herbicidal effect (growth inhibition grade) (Monochoria vaginalis)	ECHDG (2-2.5L) #2 herbicidal effect (growth inhibition grade) [1]	ECHDG #1 herbicidal effect (growth inhibition grade) [2]	SCIJU #1 herbicidal effect (growth inhibition grade) (Scirpus juncoides)
CCOc1ccc(CS(=O)(=O)c2ncc(Cl)s2)c(Cl)c1Cl [Compound 1C-100]	5 (Growth inhibition effect is equal to or greater than 90%, or complete withering is achieved)	5 (Growth inhibition effect is equal to or greater than 90%, or complete withering is achieved)	5 (Growth inhibition effect is equal to or greater than 90%, or complete withering is achieved)	5 (Growth inhibition effect is equal to or greater than 90%, or complete withering is achieved)	5 (Growth inhibition effect is equal to or greater than 90%, or complete withering is achieved)
CCOc1ccccc1CS(=O)(=O)c1ncc(Cl)s1 [Compound 1C-8]	5 (Growth inhibition effect is equal to or greater than 90%, or complete withering is achieved)	5 (Growth inhibition effect is equal to or greater than 90%, or complete withering is achieved)	5 (Growth inhibition effect is equal to or greater than 90%, or complete withering is achieved)	5 (Growth inhibition effect is equal to or greater than 90%, or complete withering is achieved)	5 (Growth inhibition effect is equal to or greater than 90%, or complete withering is achieved)
O=S(=O)(Cc1cc(Cl)ccc1OC(F)F)c1ncc(Cl)s1 [Compound 1C-39]	5 (Growth inhibition effect is equal to or greater than 90%, or complete withering is achieved)	5 (Growth inhibition effect is equal to or greater than 90%, or complete withering is achieved)	5 (Growth inhibition effect is equal to or greater than 90%, or complete withering is achieved)	5 (Growth inhibition effect is equal to or greater than 90%, or complete withering is achieved)	5 (Growth inhibition effect is equal to or greater than 90%, or complete withering is achieved)
CCOc1c(Cl)cc(F)cc1CS(=O)(=O)c1ncc(Cl)s1 [Compound 1C-22]	5 (Growth inhibition effect is equal to or greater than 90%, or complete withering is achieved)	5 (Growth inhibition effect is equal to or greater than 90%, or complete withering is achieved)	5 (Growth inhibition effect is equal to or greater than 90%, or complete withering is achieved)	5 (Growth inhibition effect is equal to or greater than 90%, or complete withering is achieved)	5 (Growth inhibition effect is equal to or greater than 90%, or complete withering is achieved)
COc1ccccc1CS(=O)(=O)c1ncc(Cl)s1 [Compound 1C-2]	5 (Growth inhibition effect is equal to or greater than 90%, or complete withering is achieved)	5 (Growth inhibition effect is equal to or greater than 90%, or complete withering is achieved)	5 (Growth inhibition effect is equal to or greater than 90%, or complete withering is achieved)	5 (Growth inhibition effect is equal to or greater than 90%, or complete withering is achieved)	5 (Growth inhibition effect is equal to or greater than 90%, or complete withering is achieved)
O=S(=O)(Cc1cc(Br)ccc1OC(F)F)c1ncc(Cl)s1 [Compound 1C-40]	5 (Growth inhibition effect is equal to or greater than 90%, or complete withering is achieved)	5 (Growth inhibition effect is equal to or greater than 90%, or complete withering is achieved)	5 (Growth inhibition effect is equal to or greater than 90%, or complete withering is achieved)	5 (Growth inhibition effect is equal to or greater than 90%, or complete withering is achieved)	5 (Growth inhibition effect is equal to or greater than 90%, or complete withering is achieved)
CCOc1cc(Cl)cc(CS(=O)(=O)c2ncc(Cl)s2)c1 [Compound 1C-78]	5 (Growth inhibition effect is equal to or greater than 90%, or complete withering is achieved)	5 (Growth inhibition effect is equal to or greater than 90%, or complete withering is achieved)	5 (Growth inhibition effect is equal to or greater than 90%, or complete withering is achieved)	5 (Growth inhibition effect is equal to or greater than 90%, or complete withering is achieved)	5 (Growth inhibition effect is equal to or greater than 90%, or complete withering is achieved)
CCOc1ccc(CS(=O)(=O)c2ncc(Cl)s2)c(F)c1F [Compound 1C-99]	5 (Growth inhibition effect is equal to or greater than 90%, or complete withering is achieved)	5 (Growth inhibition effect is equal to or greater than 90%, or complete withering is achieved)	5 (Growth inhibition effect is equal to or greater than 90%, or complete withering is achieved)	5 (Growth inhibition effect is equal to or greater than 90%, or complete withering is achieved)	5 (Growth inhibition effect is equal to or greater than 90%, or complete withering is achieved)
CCOc1ccc(F)c(CS(=O)(=O)c2ncc(Cl)s2)c1F [Compound 1C-82]	5 (Growth inhibition effect is equal to or greater than 90%, or complete withering is achieved)	5 (Growth inhibition effect is equal to or greater than 90%, or complete withering is achieved)	5 (Growth inhibition effect is equal to or greater than 90%, or complete withering is achieved)	5 (Growth inhibition effect is equal to or greater than 90%, or complete withering is achieved)	5 (Growth inhibition effect is equal to or greater than 90%, or complete withering is achieved)
CCOc1ccc(CS(=O)(=O)c2ncc(Cl)s2)c(C)c1 [Compound 1C-93]	5 (Growth inhibition effect is equal to or greater than 90%, or complete withering is achieved)	5 (Growth inhibition effect is equal to or greater than 90%, or complete withering is achieved)	5 (Growth inhibition effect is equal to or greater than 90%, or complete withering is achieved)	5 (Growth inhibition effect is equal to or greater than 90%, or complete withering is achieved)	5 (Growth inhibition effect is equal to or greater than 90%, or complete withering is achieved)
CCOc1c(C)cc(Cl)cc1CS(=O)(=O)c1ncc(Cl)s1 [Compound 1C-26]	5 (Growth inhibition effect is equal to or greater than 90%, or complete withering is achieved)	5 (Growth inhibition effect is equal to or greater than 90%, or complete withering is achieved)	5 (Growth inhibition effect is equal to or greater than 90%, or complete withering is achieved)	5 (Growth inhibition effect is equal to or greater than 90%, or complete withering is achieved)	5 (Growth inhibition effect is equal to or greater than 90%, or complete withering is achieved)
CCOc1ccc(CS(=O)(=O)c2ncc(Cl)s2)cc1Cl [Compound 1C-96]	5 (Growth inhibition effect is equal to or greater than 90%, or complete withering is achieved)	–	4 (Growth inhibition effect is equal to or greater than 70%, and less than 90%)	5 (Growth inhibition effect is equal to or greater than 90%, or complete withering is achieved)	5 (Growth inhibition effect is equal to or greater than 90%, or complete withering is achieved)
